Experimental data: article PMC9007462 (Journal of Medicinal Chemistry, 2022)

Key:
Human ALDH1A3 [1] = target: T1, Human ALDH1A3 (Homo sapiens, UniProt P47895); test: ALDH1A3 inhibition, IC50, Ki and type of inhibition; format: biochemical; conditions: 6 μM hexanal as substrate; mean ± SE
T1 construct: made in house
T1 sequence (P47895 1-512): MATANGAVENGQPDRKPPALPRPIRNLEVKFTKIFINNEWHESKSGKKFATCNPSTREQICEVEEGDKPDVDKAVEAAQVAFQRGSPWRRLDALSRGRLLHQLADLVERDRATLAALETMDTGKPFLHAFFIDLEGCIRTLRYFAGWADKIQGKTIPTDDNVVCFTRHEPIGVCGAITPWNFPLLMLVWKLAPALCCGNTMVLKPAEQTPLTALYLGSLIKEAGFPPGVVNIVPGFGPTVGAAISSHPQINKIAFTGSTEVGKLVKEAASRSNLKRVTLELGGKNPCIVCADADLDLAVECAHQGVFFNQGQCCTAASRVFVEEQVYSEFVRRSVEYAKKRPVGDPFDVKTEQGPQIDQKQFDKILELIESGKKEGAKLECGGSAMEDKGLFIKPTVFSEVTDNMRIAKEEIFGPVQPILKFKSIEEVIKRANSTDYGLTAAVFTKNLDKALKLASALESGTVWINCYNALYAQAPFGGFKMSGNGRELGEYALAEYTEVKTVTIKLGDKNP
Method: Human ALDH1A1, ALDH1A3, and ALDH3A1 were cloned and recombinantly expressed from the pET-30 Xa/LIC vector. Protein purification was achieved by affinity chromatography on a nickel-charged chelating Sepharose Fast Flow 5-mL column (His Trap column, Cytiva), which specifically binds the protein due to its N-terminal (His)6 tag, using an ÄKTA FPLC system (Cytiva), as previously described.[55] Enzymes including the His tag were stored at −80 °C in 20 mM Tris/HCl and 0.5 M NaCl, pH 8.0, until use. Reaction buffers were as follows: ALDH1A1 was assayed in 50 mM HEPES, 0.5 mM EDTA, and 0.5 mM DTT, pH 8.0; […] Activity under standard conditions was measured fluorimetrically at 25 °C using a Cary Eclipse (Varian) fluorimeter to follow the purification procedure and to check the enzyme concentration before each kinetic experiment. […] In order to determine the IC50 values, reaction rates were determined at various concentrations of inhibitor at a fixed concentration of substrate. […] Values are expressed as the mean ± SE. […] The data of enzymatic activities at different inhibitor concentrations were fitted to the Michaelis–Menten equation to determine the values of Km and Vmax. Next, results were fitted to the equations for competitive, given by [drawing 3]; noncompetitive, given by [drawing 4]; uncompetitive, given by [drawing 5]; and mixed, given by [drawing 6] .[56] The type of inhibition was selected based on the lowest error value. Parameters were expressed as the mean ± SE.

Human ALDH1A1 [2] = target: T2, Human ALDH1A1 (Homo sapiens, UniProt P00352); test: Inhibition screening, single point at 10 μM, ALDH1A1; format: biochemical; conditions: 10 μM compound; 5 μM hexanal (Figure S1)
T2 construct: made in house
T2 sequence (P00352 1-501): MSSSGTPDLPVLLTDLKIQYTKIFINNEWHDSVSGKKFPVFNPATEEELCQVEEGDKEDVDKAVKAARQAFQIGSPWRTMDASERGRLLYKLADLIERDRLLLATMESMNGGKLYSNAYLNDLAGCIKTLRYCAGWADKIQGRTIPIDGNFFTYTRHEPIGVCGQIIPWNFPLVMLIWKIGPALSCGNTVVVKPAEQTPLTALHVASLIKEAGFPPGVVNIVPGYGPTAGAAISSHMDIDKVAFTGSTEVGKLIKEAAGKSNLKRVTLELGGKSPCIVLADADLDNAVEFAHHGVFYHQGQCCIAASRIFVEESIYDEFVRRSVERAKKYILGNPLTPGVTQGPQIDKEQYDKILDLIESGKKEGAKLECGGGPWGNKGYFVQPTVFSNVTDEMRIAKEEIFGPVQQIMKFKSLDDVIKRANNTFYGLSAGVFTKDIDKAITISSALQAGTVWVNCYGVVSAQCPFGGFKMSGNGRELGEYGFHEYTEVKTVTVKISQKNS
Method: (§1) Human ALDH1A1, ALDH1A3, and ALDH3A1 were cloned and recombinantly expressed from the pET-30 Xa/LIC vector. Protein purification was achieved by affinity chromatography on a nickel-charged chelating Sepharose Fast Flow 5-mL column (His Trap column, Cytiva), which specifically binds the protein due to its N-terminal (His)6 tag, using an ÄKTA FPLC system (Cytiva), as previously described.[55] Enzymes including the His tag were stored at −80 °C in 20 mM Tris/HCl and 0.5 M NaCl, pH 8.0, until use. Reaction buffers were as follows: ALDH1A1 was assayed in 50 mM HEPES, 0.5 mM EDTA, and 0.5 mM DTT, pH 8.0; ALDH1A3 was assayed in 50 mM HEPES, 30 mM MgCl2, and 5 mM DTT, pH 8.0; and ALDH3A1 was assayed in 50 mM Tris–HCl and 5 mM DTT, pH 8.0. Activity under standard conditions was measured fluorimetrically at 25 °C using a Cary Eclipse (Varian) fluorimeter to follow the purification procedure and to check the enzyme concentration before each kinetic experiment. The fluorescence of NADH was characterized at 460 nm with excitation at 340 nm, and 5 μM NAD(P)H was added as an internal standard to obtain the absolute reaction rates.[55] Standard activity was measured at saturating concentrations of substrate using 30 μM hexanal (ALDH1A1), 250 μM hexanal (ALDH1A3), or 250 μM 4-NBA (ALDH3A1). NAD^+ was 500 μM for ALDH1A1 and ALDH1A3, and NADP^+ was 1 mM for ALDH3A1.
All compounds tested were dissolved in DMSO and assayed at a final concentration of 1% (v/v) DMSO. […] For the initial screening, the enzymatic activity was measured in 96-well plates (final volume of 200 μL) in a Victor 3 Multilabel Plate Reader (Perkin Elmer), by monitoring the fluorescence of the NAD(P)H produced during the reaction (excitation at 340 nm and emission at 460 nm). Alternatively, the enzymatic activity was measured in a Varian Cary 400 UV–vis spectrophotometer, by monitoring the increase in the absorbance of NAD(P)H at 340 nm (ε = 6.22 mM^–1·cm^–1) or in a Cary Eclipse Varian fluorimeter, as described above. […] For ALDH1A1, 5 μM hexanal (Sigma) was used. For ALDH1A3, 10 and 250 μM hexanal (Sigma) were used. For ALDH3A1, 4-NBA (Sigma) was used at 31 and 250 μM. All substrates were prepared in the corresponding assay buffer at a concentration of 2 mM and further diluted to reach the final concentrations required per experiment. The concentration of the enzyme was kept from 50- to 100-fold lower than that of the substrate for all enzymatic assays.

Human ALDH1A1 [3] = target: T2, Human ALDH1A1; test: ALDH1A1 inhibition, IC50 determination; format: biochemical; conditions: 5 μM hexanal as substrate; mean ± SE
Method: as §1
(§2) In order to determine the IC50 values, reaction rates were determined at various concentrations of inhibitor at a fixed concentration of substrate. As substrates for ALDH1A1, ALDH1A3, and ALDH3A1, 5 μM hexanal, 6 μM hexanal, and 31 μM 4-NBA, respectively, were used. The IC50 values were calculated by nonlinear fitting of the obtained data to a sigmoidal plot using GraFit 5.0 (Erithacus software), with the following 4-parameter equation [drawing 2] , where y is the specific activity, x is the inhibitor concentration, background is the minimum y value, range is the fitted uninhibited value minus the background, and s is the slope factor. Values are expressed as the mean ± SE.

Human ALDH1A3 [4] = target: T1, Human ALDH1A3; test: Inhibition screening, single point at 10 μM, ALDH1A3; format: biochemical; conditions: 10 μM compound; hexanal as substrate (Figure S1)
Method: as §1, with “Reaction buffers were as follows: ALDH1A1 was assayed in 50 mM HEPES, 0.5 mM EDTA, and 0.5 mM DTT, pH 8.0; ALDH1A3 was assayed in 50 mM HEPES, 30 mM MgCl2, and 5 mM DTT, pH 8.0; and ALDH3A1 was assayed in 50 mM Tris–HCl and 5 mM DTT, pH 8.0.” left out, “NAD^+ was 500 μM for ALDH1A1 and ALDH1A3, and NADP^+ was 1 mM for ALDH3A1.” left out
All compounds tested were dissolved in DMSO and assayed at a final concentration of 1% (v/v) DMSO. […] Alternatively, the enzymatic activity was measured in a Varian Cary 400 UV–vis spectrophotometer, by monitoring the increase in the absorbance of NAD(P)H at 340 nm (ε = 6.22 mM^–1·cm^–1) or in a Cary Eclipse Varian fluorimeter, as described above. […]

LNCaP = test: MTT chemosensitivity assay, LNCaP; format: cell-based, human; conditions: Homo sapiens, LNCaP, 96 h exposure, ± SD, at least three independent experiments
Method: (§3) MTT (3-(4, 5-dimethyl-2-thiazolyl)-2, 5-diphenyl-2H-tetrazolium bromide) assay was used to determine cell viability.[64] Immortalized PCa cells (PC-3, Du-145, and LNCaP) were seeded in 96-well plates and allowed to adhere overnight at 37 °C, 5% CO2, and 100% humidity. […] After 96 h of exposure, 200 μL of MTT (Sigma) solution (0.5 mg/mL) was added to each well and incubated at 37 °C for 4 h. The formazan crystals were dissolved in DMSO (Sigma), and the absorbance was read using a microplate reader (Multiskan EX; Thermo Fisher Scientific) at 540 nm. Data analysis was performed using Microsoft Excel 2013 and GraphPad Prism software.

PC3 = test: MTT chemosensitivity assay, PC3; format: cell-based, human; conditions: Homo sapiens, PC-3, 96 h exposure, ± SD, at least three independent experiments
Method: as §3

DU145 = test: MTT chemosensitivity assay, DU145; format: cell-based, human; conditions: Homo sapiens, DU-145, 96 h exposure, ± SD, at least three independent experiments
Method: as §3

Human ALDH1A1 [5] = target: T2, Human ALDH1A1; test: DEAB analogues as substrates of ALDH1A1; format: biochemical; conditions: 10 μM compound as substrate, relative to activity with 10 μM hexanal (Figure S2)
Method: as §1
According to their structure with a carbonyl group, compounds were tested for their substrate properties against ALDH1A1, ALDH1A3, and ALDH3A1. […] Results are expressed as the percentage of activity at 10 μM versus the activity at 10 μM of their standard substrate (hexanal or 4-NBA). Values are expressed as the mean ± SE.

Human ALDH3A1 = target: T3, Human ALDH3A1 (Homo sapiens, UniProt P30838); test: ALDH3A1 inhibition, IC50, Ki and type of inhibition; format: biochemical
T3 construct: made in house
T3 sequence (P30838 1-453): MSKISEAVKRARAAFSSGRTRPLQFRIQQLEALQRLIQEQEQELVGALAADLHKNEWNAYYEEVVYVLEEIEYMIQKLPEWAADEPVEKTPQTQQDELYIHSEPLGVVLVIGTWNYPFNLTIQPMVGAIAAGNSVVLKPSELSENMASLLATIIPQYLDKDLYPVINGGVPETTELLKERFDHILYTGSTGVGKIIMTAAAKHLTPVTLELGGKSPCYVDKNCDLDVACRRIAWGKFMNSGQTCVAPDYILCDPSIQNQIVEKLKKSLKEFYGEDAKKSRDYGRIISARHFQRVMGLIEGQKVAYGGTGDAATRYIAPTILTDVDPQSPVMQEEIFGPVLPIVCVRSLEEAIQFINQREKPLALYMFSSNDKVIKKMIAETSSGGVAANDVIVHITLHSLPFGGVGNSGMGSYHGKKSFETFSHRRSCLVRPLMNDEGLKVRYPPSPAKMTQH
Method: as §1, §2
Activity assays to determine the type of inhibition and Ki value were performed using various substrate and inhibitor concentrations maintaining the same conditions as for the IC50 experiments and using GraFit 5.0 for data processing. The data of enzymatic activities at different inhibitor concentrations were fitted to the Michaelis–Menten equation to determine the values of Km and Vmax. Next, results were fitted to the equations for competitive, given by [drawing 3]; noncompetitive, given by [drawing 4]; uncompetitive, given by [drawing 5]; and mixed, given by [drawing 6] .[56] The type of inhibition was selected based on the lowest error value. Parameters were expressed as the mean ± SE.

SMILES | IC50 (Human ALDH1A3 [1]) [µM] | remaining ALDH1A1 activity (Human ALDH1A1 [2]) [%] | IC50 (Human ALDH1A1 [3]) [µM] | remaining ALDH1A3 activity (Human ALDH1A3 [4]) [%] | IC50 (LNCaP) [µM] | IC50 (PC3) [µM] | IC50 (DU145) [µM] | ALDH1A1 substrate activity (Human ALDH1A1 [5]) [%] | IC50 (Human ALDH3A1; 31 μM 4-NBA as substrate, mean ± SE) [µM] | type of inhibition ALDH3A1 (Human ALDH3A1; 4-NBA as substrate) | Ki (Human ALDH3A1; 4-NBA as substrate, fit to competitive inhibition equation, mean ± SE) [µM]
O=Cc1ccc(N2CCCC2)c(Cl)c1 [Compound 12, 3-Chloro-4-(pyrrolidin-1-yl)benzaldehyde] | 0.31 ± 0.03 | 17 | – | – | – | – | – | – | – | – | –
COc1cc(C=O)ccc1N1CCCC1 [Compound 29, 3-Methoxy-4-(pyrrolidin-1-yl)benzaldehyde] | 4.86 ± 0.81 | – | 0.88 ± 0.05 | – | – | – | – | – | – | – | –
Cc1cc(C=O)ccc1N1CCOCC1 [Compound 27, 3-Methyl-4-morpholinobenzaldehyde] | – | – | – | 10 | – | – | – | – | – | – | –
Cc1cc(C=O)ccc1N1CCCC1 [Compound 26, 3-Methyl-4-(pyrrolidin-1-yl)benzaldehyde] | 1.15 ± 0.15 | – | 0.8 ± 0.16 | – | 172 ± 8 | > 200 | > 200 | – | – | – | –
CCCN(CCC)c1ccc(C=O)cc1 [Compound 1, 4-(Dipropylamino)benzaldehyde] | – | 12 | – | – | 73 ± 14 | > 200 | 190 ± 25 | – | – | – | –
CCN(CC)c1ccc(C=O)cc1[N+](=O)[O-] [Compound 19, 4-(Diethylamino)-3-Nitrobenzaldehyde] | – | – | – | – | 136 ± 13 | > 200 | > 200 | 69 | 1.29 ± 0.15 | competitive | 0.24 ± 0.04
CCN(CC)c1ccc(C=O)cc1Br [Compound 13, 3-Bromo-4-(diethylamino)benzaldehyde] | 10.7 ± 1.3 | 24 | – | – | 47 ± 0.6 | 166 ± 41 | 123 ± 12 | ~60 | – | – | –
